PubChem BioAssay AID1996
Converted amounts (≈) assume the structure as drawn.

Settings: buffer; pH 7.4; 200.0 µM
In the case of `CC(OC(=O)c1ccncc1)C(=O)NC1CCCC1` (centres undefined), the solubility kinetic is reported as > 39.3 µg/mL. With `CC1CCCN(Cc2c(O)ccc3c4c(c(=O)oc23)CCCC4)C1` (centres undefined) the solubility kinetic was 44 µg/mL (≈ 134 µM). For `Cc1cccc(NC(=O)Cn2c(=O)oc3ccccc32)n1`, the solubility kinetic was > 42.5 µg/mL. `CCS(=O)(=O)c1ccc(O)c(NC(=O)c2ccc(S(=O)(=O)N3CCCCCC3)cc2)c1` gave a solubility kinetic of 11.6 µg/mL (≈ 24.9 µM). With `Cc1cccc(NC(=O)C(=O)C2C(=O)Nc3ccccc32)c1` (centres undefined) the solubility kinetic was > 44.1 µg/mL. For `Cc1cccc(NC(=O)c2cc3cc([N+](=O)[O-])ccc3s2)n1`, the solubility kinetic was < 0.2 µg/mL. `O=C(c1cncc(Br)c1)N1CCN(S(=O)(=O)c2ccc3ccccc3c2)CC1` showed a solubility kinetic of 6.5 µg/mL (≈ 14.1 µM). `Cc1ccc(CONC(=O)c2ccc(C)cc2)cc1` gave a solubility kinetic of 20.2 µg/mL (≈ 79.1 µM). For `Cn1ncc(Br)c1C(=O)N1CCCCCC1`, the solubility kinetic was > 42.9 µg/mL. For `CC(=O)Nc1ccc(C2NC(=O)CCC2[N+](=O)[O-])cc1` (centres undefined), the solubility kinetic was 31.7 µg/mL (≈ 114 µM). `CC(C)CC(=O)N/C(N)=N/c1nc2ccccc2o1` showed a solubility kinetic of 1.3 µg/mL (≈ 4.99 µM). Work on `Cc1ccc(CN(Cc2ccccc2)C(=S)Nc2ccccc2C)o1` yielded a solubility kinetic of 1.5 µg/mL (≈ 4.28 µM). Compound `OC(CN1CC=C(c2ccccc2)CC1)c1ccccc1` (centres undefined) has a solubility kinetic of 40.8 µg/mL (≈ 146 µM). Compound `O=C(Nc1cccc(Cl)c1)C1CC1c1ccccc1` (centres undefined) has a solubility kinetic of 3.3 µg/mL (≈ 12.1 µM). With `COc1ccc(NC(=S)NCc2ccccc2Cl)c(OC)c1` the solubility kinetic was < 0.4 µg/mL. With `N#CC1(NC(=O)COC(=O)CN2C(=O)c3ccccc3C2=O)CCCCC1` the solubility kinetic was > 55.4 µg/mL. For `Cc1c(C(=O)N2CCC[C@H]2CO)oc2c(F)cccc12`, the solubility kinetic was 37 µg/mL (≈ 133 µM). With `Cc1cc(C)c(Nc2ncccc2C(=O)O)c(C)c1` the solubility kinetic was > 38.4 µg/mL. For `CCC(Sc1nc2ncnc(N)c2[nH]1)C(=O)O` (centres undefined), the solubility kinetic was 34.1 µg/mL (≈ 135 µM). For `O=C(NCc1ccc2c(c1)OCO2)Nc1ccc([N+](=O)[O-])cc1`, the solubility kinetic was 0.9 µg/mL (≈ 2.85 µM). With `O=C(Nc1cccc(F)c1)Nc1ccc2c(c1)C(=O)OC2` the solubility kinetic was < 0.3 µg/mL. Compound `O=C(CN1CCCC1)Nc1c(Cl)cccc1Cl` has a solubility kinetic of 36.9 µg/mL (≈ 135 µM). Compound `Cc1ccc(OCc2ccc(Br)cc2)c([N+](=O)[O-])n1` has a solubility kinetic of 2.2 µg/mL (≈ 6.81 µM). With `Cc1[nH]nc(SCC(=O)N2CCOCC2)c1[N+](=O)[O-]` the solubility kinetic was > 42.9 µg/mL. For `Cc1cccc(OCC(=O)NCc2ccc(F)cc2)c1`, the solubility kinetic was 23.4 µg/mL (≈ 85.6 µM). In the case of `COc1ccc(C2CC(C)=C(C#N)S(=O)(=O)C2C#N)cc1` (centres undefined), the solubility kinetic is reported as > 45.4 µg/mL. Work on `O=C(Nc1cccc2c1CCCC2)c1ccccc1F` yielded a solubility kinetic of 2.5 µg/mL (≈ 9.28 µM). For `COc1ccccc1NC(=O)c1ccc(-n2ccnc2)c([N+](=O)[O-])c1`, the solubility kinetic was > 50.7 µg/mL. `Cc1cc(C)cc(OCc2nc(-c3cccnc3)no2)c1` showed a solubility kinetic of 13.3 µg/mL (≈ 47.3 µM). Work on `Cc1cc(CSc2nc(C)cc(=O)[nH]2)c2ncccc2c1` yielded a solubility kinetic of 8.7 µg/mL (≈ 29.3 µM). `Cc1ccc(C)c(N2CN(CCC3=CCCCC3)CNC2=S)c1` showed a solubility kinetic of 38.7 µg/mL (≈ 117 µM). With `CC(=O)Nc1ccc2nc(NC(=O)CCc3ccccc3)sc2c1` the solubility kinetic was 0.7 µg/mL (≈ 2.06 µM). For `COc1ccc(/C=C/C(=O)OCC(=O)NC(C)CCc2ccccc2)cc1` (centres undefined), the solubility kinetic was 3.7 µg/mL (≈ 10.1 µM). Compound `Cc1ccc(-c2csc(NC(=O)c3c(C)noc3C)n2)cc1` has a solubility kinetic of 6.4 µg/mL (≈ 20.4 µM). For `COC(=O)[C@H](CC(C)C)NC(=O)N1CCCCC1C` (some centres undefined), the solubility kinetic was > 40.6 µg/mL. In the case of `NC(=O)c1cc(S(=O)(=O)NCCCc2ccco2)cs1`, the solubility kinetic is reported as > 47.2 µg/mL. Work on `CCOC(=O)Nc1ccc2c(c1)N(C(=O)CN)c1ccccc1CC2` yielded a solubility kinetic of 36.6 µg/mL (≈ 108 µM). Work on `Cn1cc(C(=O)OCC(=O)NC2CCCCC2)c2ccccc21` yielded a solubility kinetic of 4.8 µg/mL (≈ 15.3 µM). For `Cc1cccc(C)c1NC(=O)CNC(=O)COC(=O)c1ccc(Cl)s1`, the solubility kinetic was 23.9 µg/mL (≈ 62.8 µM). Compound `O=C1NC2(CCCCCC2)C(=O)N1Cc1ccccc1F` has a solubility kinetic of 26 µg/mL (≈ 89.6 µM). In the case of `Cl.NCCSC1CC(=O)N(c2ccc(F)cc2)C1=O` (centres undefined), the solubility kinetic is reported as 29.5 µg/mL. `Cc1cc(C(=O)NC2CCCCC2)c2cc(F)ccc2n1` gave a solubility kinetic of 19.6 µg/mL (≈ 68.4 µM). For `Clc1ccccc1C1CC(c2ccccc2)=Nc2ccccc2N1` (centres undefined), the solubility kinetic was 1.2 µg/mL (≈ 3.61 µM). For `CCOc1ccc(S(=O)(=O)NC2=NCCCCC2)cc1`, the solubility kinetic was > 44.5 µg/mL. With `Cc1ccc(NC(=O)CN2CCOCC2)cc1Cl` the solubility kinetic was > 40.3 µg/mL. `CCN(C/C=C/c1ccccc1OC)Cc1ccccc1` gave a solubility kinetic of 18.3 µg/mL (≈ 65 µM). Work on `CCCOc1ccccc1NC(=O)c1ccc([N+](=O)[O-])cc1` yielded a solubility kinetic of 4.1 µg/mL (≈ 13.7 µM). For `O=C(/C=C/c1ccco1)NC(=S)Nc1cccc(C(=O)O)c1`, the solubility kinetic was > 47.4 µg/mL. `COc1ccc(OCCCN2CCc3ccccc3C2)cc1.Cl` showed a solubility kinetic of 36.5 µg/mL. With `COc1ccc(CC(=O)N2CCN(c3ccccc3OC)CC2)cc1OC` the solubility kinetic was 51.5 µg/mL (≈ 139 µM). Work on `COc1ccc(/C=C/C(=O)Nc2ccncc2)cc1OC` yielded a solubility kinetic of 29.8 µg/mL (≈ 105 µM). With `Cc1cc(C(=O)OCC(=O)N2C(C)CCCC2C)c2ccccc2n1` (centres undefined) the solubility kinetic was > 51.1 µg/mL. `O=C(CC(=O)Nc1nc(C23CC4CC(CC(C4)C2)C3)cs1)NCCO` gave a solubility kinetic of 50.8 µg/mL (≈ 140 µM). With `Cc1nc(N2CCOCC2)nc(N2CCCCC2C)c1[N+](=O)[O-]` (centres undefined) the solubility kinetic was 12.2 µg/mL (≈ 38 µM). `CCn1c2ccccc2c2cc(NC(=O)c3cc(C)on3)ccc21` gave a solubility kinetic of 2.3 µg/mL (≈ 7.2 µM). With `Nc1ccc(C(=O)NCc2ccccc2)cc1` the solubility kinetic was > 33.9 µg/mL. For `O=C(NCCc1ccncc1)Nc1ccc(F)cc1`, the solubility kinetic was > 38.9 µg/mL. In the case of `O=C(Nc1ccc2c(c1)OCO2)Nc1ccccc1F`, the solubility kinetic is reported as 2.7 µg/mL (≈ 9.84 µM). In the case of `COc1ccc(CNC(=O)COC(=O)c2cc3ccccc3o2)cc1`, the solubility kinetic is reported as 5.4 µg/mL (≈ 15.9 µM).
